Source: article PMC11950244, “Discovery of novel dual-target inhibitors of LSD1/EGFR for non-small cell lung cancer therapy” (Acta Pharmacologica Sinica, 2025)
Where two headings read alike, the source gives them in different places.

Experiments:
[1] = system: BaF3 cells harboring EGFR L858R/T790M/C797S mutant; design: method as in PMID 30429956; details: read-out: IC50 BaF3 cells harboring EGFR L858R/T790M/C797S, previous studies; cited from earlier work
[2] = system: BaF3 cells stably expressing EGFR (L858R/T790M/C797S); experiment: BaF3 cell assay (CTG luminescence); details: Mus musculus, BaF3, read-out: BaF3 cell assay IC50 (μM) L858R/T790M/C797S
[3] = biological target: T1, LSD1 (Homo sapiens, UniProt O60341); experiment: LSD1 enzymatic assay; format: biochemical; details: for Bottom / Top / Hillslope: concentration-response curve fit parameter;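 for Bottom: percent inhibition of LSD1 activity from the fitted dose-response curve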;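 for Top: percent inhibition of LSD1 activity from the fitted dose-response curve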
Method: A total of 12 compounds were purchased from J&K Scientific Ltd. (Shanghai, China). The biological experiments of inhibiting the enzymatic activity of LSD1 by 12 test compounds were conducted by Pharmaron (Beijing, China). Each compound was serially diluted 4-fold in 100% dimethyl sulfoxide (DMSO) from a starting DMSO stock concentration of 20 mM to obtain 10 concentration doses. Seclidemstat was used as a positive control. The diluted compounds were added to the LSD1 assay buffer (50 mM Tris-HCl, pH 7.5, and 1% DMSO) and incubated with LSD1 for 30 min at room temperature. The peptide substrate was then added to initiate the reaction, and the mixture was further incubated for 60 min at room temperature. The reaction was stopped by adding the stop solution, followed by the addition of the detection solution containing protein-A-Eu, streptavidin-d2, and anti-Histone H3 (dimethyl K9) antibody. […] The IC50 was calculated using a nonlinear regression (dose response – variable slope) by fitting the inhibition ratio and log of compound concentrations using Graphpad 8.0.

[4] = biological target: double-mutant EGFR (T790M/L858R) (Homo sapiens, UniProt P00533, L858R/T790M); experiment: EGFR kinase assay (HTRF), double mutant; format: biochemical
double-mutant EGFR (T790M/L858R), sequence (P00533 25-1210 T790M/L858R): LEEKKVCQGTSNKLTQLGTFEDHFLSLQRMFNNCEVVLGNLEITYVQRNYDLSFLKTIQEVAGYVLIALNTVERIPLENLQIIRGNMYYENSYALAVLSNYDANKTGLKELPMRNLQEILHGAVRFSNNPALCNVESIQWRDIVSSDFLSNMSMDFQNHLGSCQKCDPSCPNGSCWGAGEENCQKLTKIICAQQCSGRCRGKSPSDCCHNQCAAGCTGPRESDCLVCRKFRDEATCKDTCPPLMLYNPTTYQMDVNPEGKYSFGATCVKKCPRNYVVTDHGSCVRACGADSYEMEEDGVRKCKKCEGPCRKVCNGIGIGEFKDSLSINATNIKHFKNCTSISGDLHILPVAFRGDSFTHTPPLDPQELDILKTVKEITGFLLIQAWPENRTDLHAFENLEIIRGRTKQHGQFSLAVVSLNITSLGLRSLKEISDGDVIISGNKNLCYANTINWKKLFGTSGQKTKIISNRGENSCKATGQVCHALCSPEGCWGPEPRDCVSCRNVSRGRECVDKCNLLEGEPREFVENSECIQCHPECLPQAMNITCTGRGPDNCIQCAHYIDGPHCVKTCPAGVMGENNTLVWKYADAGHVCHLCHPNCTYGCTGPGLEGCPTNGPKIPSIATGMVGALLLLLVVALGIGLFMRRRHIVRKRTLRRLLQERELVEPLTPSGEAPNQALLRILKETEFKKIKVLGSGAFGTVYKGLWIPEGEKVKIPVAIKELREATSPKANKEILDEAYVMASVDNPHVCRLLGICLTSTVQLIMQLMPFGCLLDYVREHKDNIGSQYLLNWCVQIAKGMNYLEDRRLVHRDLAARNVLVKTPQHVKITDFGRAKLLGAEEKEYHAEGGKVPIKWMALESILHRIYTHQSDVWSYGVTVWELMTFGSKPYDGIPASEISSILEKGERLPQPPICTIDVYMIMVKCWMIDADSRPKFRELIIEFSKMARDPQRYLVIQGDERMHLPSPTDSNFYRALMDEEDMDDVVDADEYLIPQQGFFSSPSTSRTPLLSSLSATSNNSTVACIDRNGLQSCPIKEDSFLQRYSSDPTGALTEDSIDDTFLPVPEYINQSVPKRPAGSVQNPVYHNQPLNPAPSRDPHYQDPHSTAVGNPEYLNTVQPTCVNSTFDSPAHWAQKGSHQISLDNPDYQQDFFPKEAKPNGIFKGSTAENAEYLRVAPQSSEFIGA
Method: (§1) The biological experiments of inhibiting the activity of EGFR by test compounds were also performed by Pharmaron (Beijing). To conduct the kinase assay, the following steps were followed:
(§2) % Inhibition is calculated as follow: %Inhibition=1−SINGALcmpd−SINGALave−pc/SINGALave−vc−SINGALave−pc×100
(§3) SINGALcmpd = singal for compound being tested
(§4) SINGALave_pc = singal for positive controls
(§5) SINGALave_vc = singal for vehicle controls

[5] = biological target: triple-mutant EGFR (L858R/T790M/C797S) (Homo sapiens, UniProt P00533, C797S/L858R/T790M); experiment: EGFR kinase assay (HTRF), triple mutant; format: biochemical
triple-mutant EGFR (L858R/T790M/C797S), sequence (P00533 25-1210 T790M/C797S/L858R): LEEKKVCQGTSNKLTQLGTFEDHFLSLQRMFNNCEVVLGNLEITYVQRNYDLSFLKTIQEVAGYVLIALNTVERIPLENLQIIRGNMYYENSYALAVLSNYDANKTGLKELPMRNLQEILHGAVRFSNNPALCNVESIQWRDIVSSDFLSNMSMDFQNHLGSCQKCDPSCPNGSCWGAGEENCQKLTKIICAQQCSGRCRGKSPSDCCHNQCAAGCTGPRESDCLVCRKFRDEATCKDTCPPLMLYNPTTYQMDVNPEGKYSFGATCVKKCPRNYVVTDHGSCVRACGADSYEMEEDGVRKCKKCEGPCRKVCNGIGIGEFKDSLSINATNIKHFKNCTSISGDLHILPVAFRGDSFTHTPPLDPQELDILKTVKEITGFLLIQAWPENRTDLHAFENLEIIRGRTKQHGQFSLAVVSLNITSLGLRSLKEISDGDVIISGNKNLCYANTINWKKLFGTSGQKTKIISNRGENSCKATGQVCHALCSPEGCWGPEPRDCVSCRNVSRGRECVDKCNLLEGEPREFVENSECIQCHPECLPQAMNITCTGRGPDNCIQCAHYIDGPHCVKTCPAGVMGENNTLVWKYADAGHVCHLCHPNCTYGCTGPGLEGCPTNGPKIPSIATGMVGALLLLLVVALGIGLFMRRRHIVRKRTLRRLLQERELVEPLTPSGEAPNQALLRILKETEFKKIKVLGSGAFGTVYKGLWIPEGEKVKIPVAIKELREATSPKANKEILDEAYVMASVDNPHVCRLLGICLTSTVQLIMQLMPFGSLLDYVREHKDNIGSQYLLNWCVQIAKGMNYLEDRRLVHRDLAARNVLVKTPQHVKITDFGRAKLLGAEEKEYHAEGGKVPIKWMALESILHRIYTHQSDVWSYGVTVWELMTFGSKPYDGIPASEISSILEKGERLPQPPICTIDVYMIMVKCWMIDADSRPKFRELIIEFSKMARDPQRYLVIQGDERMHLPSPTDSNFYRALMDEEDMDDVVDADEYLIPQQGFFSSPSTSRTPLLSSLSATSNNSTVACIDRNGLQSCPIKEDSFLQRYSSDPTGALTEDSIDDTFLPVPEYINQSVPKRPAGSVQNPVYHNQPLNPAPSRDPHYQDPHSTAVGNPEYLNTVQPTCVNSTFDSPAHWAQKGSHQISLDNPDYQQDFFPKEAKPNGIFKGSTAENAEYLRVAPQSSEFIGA
Method: as §1, §2, §3, §4, §5

[6] = system: LSD1/EGFR relevant downstream signaling pathways; experiment: Western blot of signaling pathway proteins in the H1975 CDX model; format: in vivo, nude mice
Method: Cells were lysed with lysis buffer (1.5 M NaCl, 1 M Hepes, 20% NP40, 0.1 M Na pyrophosphate, 0.1 M NaF, 0.1 M Na3VO4, 0.2 M glycerol phosphate) on ice for 30 min and then centrifuged at 12,000 r/min for 15 min at 4 °C. Protein samples were loaded into 12% SDS-PAGE, then separated by running for different voltage, and transferred onto PVDF membranes (Millipore, MA, USA). The membranes were blocked with 5% non-fat milk for 2 h and then incubated overnight at 4 °C or at room temperature for 2 h with the primary antibody and 1 h at room temperature with secondary antibody. Signals were detected using Luminol substrate solution (Millipore, MA, USA).

[7] = system: H1299 cells (with EGFR wild type); experiment: Cell proliferation assay (cell number counting), H1299; format: cell-based; details: 0-40 μM, counted on the fourth day
Method: (§6) Lung cancer H460, H1299, PC9, and H1975 cells were purchased from Procell (Wuhan, China) and cultured in RPMI-1640 medium (Thermo Fisher Scientific, MA, USA) supplemented with 10% fetal bovine serum (FBS, ExCell Bio, Shanghai, China). For cell proliferation assay, the cells were seeded in a 24-well plate (0.5 × 10^4 cells/well), then treated with L-1 with increasing concentrations (0, 2.5, 5, 10, 20, 40 μM) or vehicle alone. Cell numbers were counted using try-pan blue exclusion on the fourth day.

[8] = system: H460 cells (with EGFR wild type); experiment: Cell proliferation assay (cell number counting), H460; format: cell-based; details: 0-40 μM, counted on the fourth day
Method: as §6

[9] = system: Ki67; experiment: Ki67 immunohistochemical staining of CDX tumors; format: in vivo, nude mice; details: CDX tumor, L-1 treatment group
Method: Immunohistochemistry was performed on paraffin-embedded sections. Tissue sections were dewaxed and rehydrated using standard protocol. Antigen retrieval was performed by boiling samples in citrate buffer for 45 min. Endogenous peroxidase activity was inhibited by using 3% hydrogen peroxidase. Sections were blocked in 3% BSA in PBS and incubated in primary antibody (Ki67, CST, MA, USA) overnight at 4 °C. Then the secondary antibody (Goat anti-rabbit IgG (H + L) HRP, Bioworld, OH, USA) was incubated at room temperature for 1.5 h and developed using DAB. Sections were counterstained with hematoxylin.

[10] = system: H1975 cells-derived xenograft (CDX); experiment: H1975 cell-derived xenograft (CDX) mouse model, tumor formation; format: in vivo, nude mice; details: 75 and 150 mg/kg i.p. every two days, compared to control group
Method: (§7) Nude mice (nu/nu, female, 4–6-week-old) were purchased from Charles River (Beijing, China) and subcutaneously injected with 2 × 10^6 H1975 cells harboring on the right flank. Tumor growth was recorded by measurement of two perpendicular diameters using the equation: π/6 × length × width^2. To explore the effect of L-1 on tumorigenicity in lung cancer, when tumor volumes reached approximately 50 mm^3, mice received either vehicle control, L-1 (75 mg/kg) and L-1 (150 mg/kg), and they were administered every two days by i.p. injection. The mice were sacrificed, and the tumors were excised, imaged and weighed after inhibitor treatments. Statistical analyses have been done by comparison in relation to the control group with a two-tailed unpaired Student’s t test. The animal experiments were performed according to the institutional ethical guidelines approved by the Laboratory Animal Ethics Committee Nankai University.

[11] = biological target: T1, LSD1; experiment: SPR binding assay (Biacore T200)
Method: Surface plasmon resonance (SPR) was employed to evaluate direct binding between compounds and LSD1 using Biacore T200 optical biosensor (Biacore Life Sciences, GE Healthcare). LSD1 was covalently attached to CM5 sensor chip via amine coupling. Binding experiments were conducted at 15 °C in a buffer containing 10 mM HEPES (pH 7.4), 150 mM NaCl, 1% DMSO, and 0.05% Tween, with a flow rate of 30 μL/min. Compounds were serially diluted in the same buffer and injected over the prepared surfaces for 15–25 s at increasing concentrations. Sensorgrams were corrected by subtracting signals from both an untreated reference channel and blank injections. Data analysis was performed using Biacore T200 evaluation software (GE Healthcare).

[12] = Body weight of H1975 xenograft nude mice; format: in vivo; details: 75 and 150 mg/kg i.p. every two days
Method: as §7

[13] = system: PC9 cells (with EGFR mutant); experiment: Cell proliferation assay (cell number counting), PC9; format: cell-based
Method: as §6

[14] = system: H1975 cells (with EGFR mutant); experiment: Cell proliferation assay (cell number counting), H1975; format: cell-based
Method: as §6

[15] = system: EGFR-mutant NSCLC cells; design: method as in Hu et al. [61]; details: ref Hu et al. [61]; cited from earlier work
[16] = system: EGFR wild-type cells; design: method as in Hu et al. [61]; details: ref Hu et al. [61]; cited from earlier work
[17] = read-out: IC50 (μM) against LSD1
[18] = read-out: EGFR kinase assay IC50 (μM) L858R/T790M/C797S
[19] = 0-40 μM, counted on the fourth day
[20] = LSD1 knockdown compared to control cells

Compound	Relative potency % [3]	Bottom [3]	Top [3]	IC50 [3, 17]	other results
COc1cc(N2CCC(N3CCN(C)CC3)CC2)ccc1Nc1ncc(Cl)c(Nc2ccccc2P(C)(C)=O)n1 [Brigatinib, reference compound]					IC50 [1]: 0.42 µM; IC50 [2]: 0.4 µM
CCN(CC)c1ccc(/C=C2/C(=O)NC(=O)N(c3ccc(Cl)cc3)C2=O)cc1 [D-1]					IC50 [3]: > 100 µM
CCN(CC)c1ccc(/C=C2/C(=O)NC(=O)N(c3ccc(Cl)cc3)C2=O)c(OC)c1 [D-2]					IC50 [3]: > 100 µM
CCN(CC)c1ccc(/C=C2/C(=O)NC(=O)N(c3ccc(C(F)(F)F)cc3)C2=O)c(O)c1 [D-3]	0.4%	8.10	45.78		IC50 [3]: 35.7 µM
Cc1ccc(-c2noc(-c3cccn(CC(=O)Nc4ccccc4Br)c3=O)n2)cc1 [D-4]	0.5%	5.79	60.26	29.2 µM	Hillslope [3]: 4.05
COc1ccccc1NC(=O)Cn1cc(-c2nc(-c3ccc(C)cc3)no2)ccc1=O [D-5]	0.7%	7.19	54.06	21.5 µM	Hillslope [3]: 2.04
CCOc1ccccc1NC(=O)Cn1cc(-c2nc(-c3ccc(C)cc3)no2)ccc1=O [D-6]				> 100 µM	
COC(=O)c1ccccc1NC(=O)Cn1cc(-c2nc(-c3ccc(C)cc3)no2)ccc1=O [D-7]				> 100 µM	
Cc1ccc(-c2noc(-c3ccc(=O)n(CC(=O)Nc4cccc(Br)c4)c3)n2)cc1 [D-8]				> 100 µM	
Cc1ccc(-c2noc(-c3ccc(=O)n(CC(=O)Nc4ccc(Br)cc4)c3)n2)cc1 [D-9]	0.5%	3.84	52.57	26.6 µM	
Cc1ccc(-c2noc(-c3ccc(=O)n(CC(=O)Nc4ccccc4C(F)(F)F)c3)n2)cc1 [D-10]	0.4%	2.43	42.68	34.3 µM	
Cc1ccc(-c2noc(-c3ccc(=O)n(CC(=O)Nc4ccc(C)cc4Br)c3)n2)cc1 [D-11]				> 100 µM	
COc1cc(Cl)c(C)cc1NC(=O)Cn1cc(-c2nc(-c3ccc(C)cc3)no2)ccc1=O [D-12]				> 100 µM	
CCCCNC(=O)Cn1cc(-c2nc(-c3ccc(C)cc3)no2)ccc1=O [D-13]				> 100 µM	
Cc1ccc(-c2noc(-c3ccc(=O)n(CC(=O)NCc4ccccc4)c3)n2)cc1 [D-14]	0.5%	−1.64	48.09	28.3 µM	Hillslope [3]: 2.53; IC50 [2]: 2.45 µM; IC50 [4]: 73.9 µM; IC50 [5, 18]: 86.7 µM
COC(=O)c1sccc1NC(=O)Cn1cc(-c2nc(-c3ccc(C)cc3)no2)ccc1=O [D-15]				> 100 µM	
Cc1noc(-c2ccc(=O)n(CC(=O)Nc3ccccc3Br)c2)n1 [D-16]	0.5%	−2.33	51.97	28.7 µM	IC50 [2]: 2.72 µM; IC50 [5, 18]: 59.6 µM
CCCc1noc(-c2ccc(=O)n(CC(=O)Nc3ccccc3Br)c2)n1 [D-17]	0.8%	−0.07	64.23	19.8 µM	IC50 [4]: > 100 µM; IC50 [5, 18]: > 100 µM
CC(C)c1noc(-c2ccc(=O)n(CC(=O)Nc3ccccc3Br)c2)n1 [D-18]				> 100 µM	
CCN(CC)c1ccc(/C=C2/C(=O)NC(=O)N(c3ccc(Cl)cc3)C2=O)c(O)c1 [L-1]	3.7%	−4.65	51.52		LSD1/EGFR relevant downstream signaling pathways (Western blot) [6]: could inhibit; cell proliferation, H1299 [7]: not have effect; cell proliferation, H460 [8]: not have effect; IC50 [3]: 6.24 µM; Hillslope [3]: 1.26; level of Ki67 (IHC) [9]: significantly suppressed; tumor growth rate [10]: slower growth rate; tumor size [10]: smaller tumor size; tumor weight [10]: lighter tumor weight; IC50 [2]: 5.58 µM; Binding to LSD1 by SPR (in words) [11]: specific and reversible binding; Kd [11]: 18.2 µM; body weight of nude mice [12]: did not affect; cell proliferation, PC9 [13, 19]: significantly inhibited; efficacy after LSD1 knockdown, PC9 [13, 20]: less effective; cell proliferation, H1975 [14, 19]: significantly inhibited; efficacy after LSD1 knockdown, H1975 [14, 20]: less effective; IC50 [5]: 5.01 µM
Cc1ccc(-c2noc(-c3ccc(=O)n(CC(=O)Nc4ccccc4Br)c3)n2)cc1 [L-6]	2.5%	−11.46	55.47	9.26 µM	Hillslope [3]: 1.86; IC50 [2]: 8.99 µM; IC50 [4]: 26.5 µM; Binding to LSD1 by SPR (in words) [11]: specific and reversible binding; Kd ([11]; SPR, 15 °C, read-out: dissociation constant (KD)): 26.4 µM; IC50 [5, 18]: 28.5 µM
C=CC(=O)Nc1cc(Nc2nccc(-c3cn(C)c4ccccc34)n2)c(OC)cc1N(C)CCN(C)C [Osimertinib]					effect on EGFR-mutant cells [15]: significant inhibitory effect; effect on EGFR wild-type cells [16]: less pronounced impact
C/C(=N\NC(=O)c1cccc(S(=O)(=O)N2CCN(C)CC2)c1)c1cc(Cl)ccc1O [Seclidemstat, seclidemstat, reference compound]					IC50 [3]: 0.231 µM; Inhibition of LSD1 enzymatic activity ([3]; at 10 μM): complete inhibition; IC50 [2]: 0.98 µM; Inhibitory activity against EGFR double mutant (in words) [4]: does not exhibit inhibitory activity; Inhibitory activity against EGFR triple mutant (in words) [5]: does not exhibit inhibitory activity
